Laboratory results reported in PubChem BioAssay AID1963826 (Molecular Pharmacology Branch, DTP, NCI, 2024).

System: 926638-142-R-J1-PDC complex spheroid viability
Assay: Anticancer human tumor 926638-142-R-J1-PDC patient-derived endometrial carcinoma cell line growth inhibition [POLQ]
Conditions: for IC50: curve of first compound; for viability, T/C: stronger effect = lower value
Outline: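 Complex spheroid viability model combining PDC tumour cells with endothelial (HUVEC) and MSC stromal cells. Novobiocin, ART-558 or RP6685 were tested singly and in combination with standard and investigational anticancer drugs. Each was titrated in half-log steps from near clinical Cmax, or from 10 microM where Cmax was unknown.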

[1] = second compound 0.0316 µM, first compound 0.0316 µM
[2] = second compound 0.0316 µM, first compound 0.1 µM
[3] = second compound 0.0316 µM, first compound 0.316 µM
[4] = second compound 0.0316 µM, first compound 1 µM
[5] = second compound 0.0316 µM, first compound 3.16 µM
[6] = second compound 0.0316 µM, first compound 10 µM
[7] = second compound 0.1 µM, first compound 0.0316 µM
[8] = second compound 0.1 µM, first compound 0.1 µM
[9] = second compound 0.1 µM, first compound 0.316 µM
[10] = second compound 0.1 µM, first compound 1 µM
[11] = second compound 0.1 µM, first compound 3.16 µM
[12] = second compound 0.1 µM, first compound 10 µM
[13] = second compound 0.316 µM, first compound 0.0316 µM
[14] = second compound 0.316 µM, first compound 0.1 µM
[15] = second compound 0.316 µM, first compound 0.316 µM
[16] = second compound 0.316 µM, first compound 1 µM
[17] = second compound 0.316 µM, first compound 3.16 µM
[18] = second compound 0.316 µM, first compound 10 µM
[19] = second compound 1 µM, first compound 0.0316 µM
[20] = second compound 1 µM, first compound 0.1 µM
[21] = second compound 1 µM, first compound 0.316 µM
[22] = second compound 1 µM, first compound 1 µM
[23] = second compound 1 µM, first compound 3.16 µM
[24] = second compound 1 µM, first compound 10 µM
[25] = second compound 3.16 µM, first compound 0.0316 µM
[26] = second compound 3.16 µM, first compound 0.1 µM
[27] = second compound 3.16 µM, first compound 0.316 µM
[28] = second compound 3.16 µM, first compound 1 µM
[29] = second compound 3.16 µM, first compound 3.16 µM
[30] = second compound 3.16 µM, first compound 10 µM
[31] = second compound 10 µM, first compound 0.0316 µM
[32] = second compound 10 µM, first compound 0.1 µM
[33] = second compound 10 µM, first compound 0.316 µM
[34] = second compound 10 µM, first compound 1 µM
[35] = second compound 10 µM, first compound 3.16 µM
[36] = second compound 10 µM, first compound 10 µM
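Note: spheroids exposed to drugs for one week before readout.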
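Throughout, for viability, T/C: percent viability relative to DMSO vehicle control wells set as 100%.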

CC(C)n1c(=O)n(C)c2cnc3cc(F)c(-c4ccc(OCCCN5CCCCC5)nc4)cc3c21 + COC1C(OC(N)=O)C(O)C(Oc2ccc3c(O)c(NC(=O)c4ccc(O)c(CC=C(C)C)c4)c(=O)oc3c2C)OC1(C)C
IC50 (second compound 0.0316 µM): > 10000 nM
IC50 (second compound 0.1 µM): > 10000 nM
IC50 (second compound 0.316 µM): > 10000 nM
IC50 (second compound 1 µM): > 10000 nM
IC50 (second compound 3.16 µM): > 10000 nM
IC50 (second compound 10 µM): > 10000 nM
viability, T/C [1]: 87.3%
viability, T/C [2]: 131%
viability, T/C [3]: 131%
viability, T/C [4]: 94.1%
viability, T/C [5]: 87.2%
viability, T/C [6]: 88.7%
viability, T/C [7]: 98.7%
viability, T/C [8]: 89.8%
viability, T/C [9]: 110%
viability, T/C [10]: 107%
viability, T/C [11]: 90.3%
viability, T/C [12]: 93.5%
viability, T/C [13]: 101%
viability, T/C [14]: 104%
viability, T/C [15]: 108%
viability, T/C [16]: 90.2%
viability, T/C [17]: 86.6%
viability, T/C [18]: 89%
viability, T/C [19]: 119%
viability, T/C [20]: 104%
viability, T/C [21]: 104%
viability, T/C [22]: 119%
viability, T/C [23]: 81.9%
viability, T/C [24]: 90.2%
viability, T/C [25]: 87.4%
viability, T/C [26]: 107%
viability, T/C [27]: 101%
viability, T/C [28]: 109%
viability, T/C [29]: 88.2%
viability, T/C [30]: 105%
viability, T/C [31]: 114%
viability, T/C [32]: 104%
viability, T/C [33]: 114%
viability, T/C [34]: 100%
viability, T/C [35]: 89.5%
viability, T/C [36]: 78.5%

CCc1cc2c(N3CCc4c(cc(Cn5ccnc5)cc4-c4cn(C)nc4C(F)(F)F)C3=O)cc(C)nc2c(OC)n1 + Cc1cccc(N(C)C(=O)C2C(O)CCN2c2nc(C)cc(C(F)(F)F)c2C#N)c1
IC50 (second compound 0.0316 µM): 397 nM
IC50 (second compound 0.1 µM): 658 nM
IC50 (second compound 0.316 µM): 700 nM
IC50 (second compound 1 µM): 554 nM
IC50 (second compound 3.16 µM): 467 nM
IC50 (second compound 10 µM): 257 nM
viability, T/C [1]: 77.9%
viability, T/C [2]: 72%
viability, T/C [3]: 45.9%
viability, T/C [4]: 44.4%
viability, T/C [5]: 31.8%
viability, T/C [6]: 26.9%
viability, T/C [7]: 90.2%
viability, T/C [8]: 71%
viability, T/C [9]: 59.3%
viability, T/C [10]: 44%
viability, T/C [11]: 38.1%
viability, T/C [12]: 31.4%
viability, T/C [13]: 94.8%
viability, T/C [14]: 65.3%
viability, T/C [15]: 56.3%
viability, T/C [16]: 48.4%
viability, T/C [17]: 43.2%
viability, T/C [18]: 22.5%
viability, T/C [19]: 69%
viability, T/C [20]: 80.6%
viability, T/C [21]: 58.1%
viability, T/C [22]: 39.8%
viability, T/C [23]: 34.2%
viability, T/C [24]: 26.6%
viability, T/C [25]: 91.9%
viability, T/C [26]: 66.2%
viability, T/C [27]: 56.4%
viability, T/C [28]: 38%
viability, T/C [29]: 44%
viability, T/C [30]: 27.1%
viability, T/C [31]: 66.5%
viability, T/C [32]: 64.7%
viability, T/C [33]: 45.1%
viability, T/C [34]: 37.1%
viability, T/C [35]: 36%
viability, T/C [36]: 26.8%

O=C(c1cc(Cc2n[nH]c(=O)c3ccccc23)ccc1F)N1CCN(C(=O)C2CC2)CC1 + COC1C(OC(N)=O)C(O)C(Oc2ccc3c(O)c(NC(=O)c4ccc(O)c(CC=C(C)C)c4)c(=O)oc3c2C)OC1(C)C
IC50 (second compound 0.0316 µM): > 10000 nM
IC50 (second compound 0.1 µM): > 10000 nM
IC50 (second compound 0.316 µM): > 10000 nM
IC50 (second compound 1 µM): > 10000 nM
IC50 (second compound 3.16 µM): > 10000 nM
IC50 (second compound 10 µM): > 10000 nM
viability, T/C [1]: 86%
viability, T/C [2]: 115%
viability, T/C [3]: 95.5%
viability, T/C [4]: 115%
viability, T/C [5]: 84.3%
viability, T/C [6]: 89.7%
viability, T/C [7]: 92.3%
viability, T/C [8]: 95.5%
viability, T/C [9]: 108%
viability, T/C [10]: 95.6%
viability, T/C [11]: 89.3%
viability, T/C [12]: 76.8%
viability, T/C [13]: 92.3%
viability, T/C [14]: 95.5%
viability, T/C [15]: 101%
viability, T/C [16]: 98.1%
viability, T/C [17]: 80.3%
viability, T/C [18]: 80.1%
viability, T/C [19]: 117%
viability, T/C [20]: 91.1%
viability, T/C [21]: 110%
viability, T/C [22]: 97.5%
viability, T/C [23]: 80.7%
viability, T/C [24]: 89.3%
viability, T/C [25]: 98.2%
viability, T/C [26]: 102%
viability, T/C [27]: 89.4%
viability, T/C [28]: 111%
viability, T/C [29]: 99.6%
viability, T/C [30]: 85.7%
viability, T/C [31]: 95.5%
viability, T/C [32]: 89.3%
viability, T/C [33]: 92.2%
viability, T/C [34]: 116%
viability, T/C [35]: 83.1%
viability, T/C [36]: 96%

O=c1[nH]cc(F)c(=O)[nH]1 + COC1C(OC(N)=O)C(O)C(Oc2ccc3c(O)c(NC(=O)c4ccc(O)c(CC=C(C)C)c4)c(=O)oc3c2C)OC1(C)C
IC50 (second compound 0.0316 µM): > 10000 nM
IC50 (second compound 0.1 µM): > 10000 nM
IC50 (second compound 0.316 µM): > 10000 nM
IC50 (second compound 1 µM): > 10000 nM
IC50 (second compound 3.16 µM): > 10000 nM
IC50 (second compound 10 µM): > 10000 nM
viability, T/C [1]: 124%
viability, T/C [2]: 110%
viability, T/C [3]: 94.1%
viability, T/C [4]: 101%
viability, T/C [5]: 98.4%
viability, T/C [6]: 94.1%
viability, T/C [7]: 106%
viability, T/C [8]: 90.8%
viability, T/C [9]: 104%
viability, T/C [10]: 90.4%
viability, T/C [11]: 103%
viability, T/C [12]: 71%
viability, T/C [13]: 125%
viability, T/C [14]: 105%
viability, T/C [15]: 87.3%
viability, T/C [16]: 84.1%
viability, T/C [17]: 98.2%
viability, T/C [18]: 82.7%
viability, T/C [19]: 98.3%
viability, T/C [20]: 106%
viability, T/C [21]: 90.1%
viability, T/C [22]: 79.6%
viability, T/C [23]: 79.3%
viability, T/C [24]: 75.4%
viability, T/C [25]: 102%
viability, T/C [26]: 85.9%
viability, T/C [27]: 90.6%
viability, T/C [28]: 86.9%
viability, T/C [29]: 79.5%
viability, T/C [30]: 83.6%
viability, T/C [31]: 104%
viability, T/C [32]: 96.6%
viability, T/C [33]: 77.1%
viability, T/C [34]: 86.6%
viability, T/C [35]: 114%
viability, T/C [36]: 83.4%

CCc1c2c(nc3ccc(O)cc13)-c1cc3c(c(=O)n1C2)COC(=O)[C@]3(O)CC + Nc1ccc(C#CCN(C(=O)Cc2ncc(C(F)(F)F)cc2C(F)(F)F)c2ccc(F)cc2)nn1
IC50 (second compound 0.0316 µM): 8.14 nM
IC50 (second compound 0.1 µM): 10.3 nM
IC50 (second compound 0.316 µM): 13.7 nM
IC50 (second compound 1 µM): 11.6 nM
IC50 (second compound 3.16 µM): 7.09 nM
IC50 (second compound 10 µM): 8.56 nM
viability, T/C (second compound 0.0316 µM, first compound 0.00316 µM): 54.4%
viability, T/C (second compound 0.0316 µM, first compound 0.01 µM): 52.5%
viability, T/C [1]: 32.8%
viability, T/C [2]: 27.6%
viability, T/C [3]: 15.2%
viability, T/C [4]: 11.2%
viability, T/C (second compound 0.1 µM, first compound 0.00316 µM): 67.3%
viability, T/C (second compound 0.1 µM, first compound 0.01 µM): 49.8%
viability, T/C [7]: 36.5%
viability, T/C [8]: 24.9%
viability, T/C [9]: 17.3%
viability, T/C [10]: 10.2%
viability, T/C (second compound 0.316 µM, first compound 0.00316 µM): 69.9%
viability, T/C (second compound 0.316 µM, first compound 0.01 µM): 56.9%
viability, T/C [13]: 33.7%
viability, T/C [14]: 24.6%
viability, T/C [15]: 14.9%
viability, T/C [16]: 10.4%
viability, T/C (second compound 1 µM, first compound 0.00316 µM): 60%
viability, T/C (second compound 1 µM, first compound 0.01 µM): 53.9%
viability, T/C [19]: 35.4%
viability, T/C [20]: 24.6%
viability, T/C [21]: 15.4%
viability, T/C [22]: 10.5%
viability, T/C (second compound 3.16 µM, first compound 0.00316 µM): 60.3%
viability, T/C (second compound 3.16 µM, first compound 0.01 µM): 46.7%
viability, T/C [25]: 30.6%
viability, T/C [26]: 20.6%
viability, T/C [27]: 17.6%
viability, T/C [28]: 7.92%
viability, T/C (second compound 10 µM, first compound 0.00316 µM): 64.2%
viability, T/C (second compound 10 µM, first compound 0.01 µM): 47.4%
viability, T/C [31]: 34.5%
viability, T/C [32]: 23.1%
viability, T/C [33]: 15.3%
viability, T/C [34]: 10.2%
